This passage reports IC50 and Activity results from ChEMBL document CHEMBL4270559, “Structural insight into the optimization of ethyl 5-hydroxybenzo[g]indol-3-carboxylates and their bioisosteric analogues as 5-LO/m-PGES-1 dual inhibitors able to suppress inflammation” (Eur J Med Chem, 2018).

Test [1] addresses T1, Polyunsaturated fatty acid 5-lipoxygenase (Homo sapiens, UniProt P09917).
T1 sequence (P09917 whole entry): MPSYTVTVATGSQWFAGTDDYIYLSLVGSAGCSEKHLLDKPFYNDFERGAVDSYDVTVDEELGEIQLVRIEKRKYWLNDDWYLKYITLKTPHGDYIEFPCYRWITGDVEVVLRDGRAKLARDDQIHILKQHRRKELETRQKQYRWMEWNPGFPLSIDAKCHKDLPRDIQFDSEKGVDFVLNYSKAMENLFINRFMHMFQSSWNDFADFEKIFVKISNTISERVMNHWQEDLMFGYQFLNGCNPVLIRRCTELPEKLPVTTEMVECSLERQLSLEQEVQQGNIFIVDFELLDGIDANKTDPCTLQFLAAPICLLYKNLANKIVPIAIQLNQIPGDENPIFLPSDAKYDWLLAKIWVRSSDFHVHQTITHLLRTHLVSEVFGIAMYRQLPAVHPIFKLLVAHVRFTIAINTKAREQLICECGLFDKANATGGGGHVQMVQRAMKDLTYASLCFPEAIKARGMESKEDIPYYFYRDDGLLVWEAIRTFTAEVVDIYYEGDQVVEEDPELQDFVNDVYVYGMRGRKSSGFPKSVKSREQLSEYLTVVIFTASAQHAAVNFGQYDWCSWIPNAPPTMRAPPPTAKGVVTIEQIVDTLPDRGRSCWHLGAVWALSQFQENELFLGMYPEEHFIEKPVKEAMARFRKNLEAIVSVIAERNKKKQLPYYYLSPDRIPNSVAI
The test is described as follows: Inhibition of recombinant human 5-LO expressed in Escherichia coli BL21 using arachidonic acid as substrate preincubated for 15 mins followed by substrate addition measured after 10 mins by RP-HPLC analysis.

The target in test [2] is T1, Polyunsaturated fatty acid 5-lipoxygenase. The test is described as follows: Inhibition of 5-LO in human peripheral blood neutrophils using arachidonic acid as substrate preincubated for 15 mins followed by substrate addition measured after 10 mins by RP-HPLC analysis.
Test [3] relates to Mus musculus. The test is described as follows: Anti-inflammatory activity in carrageenan-induced ICR mouse model of inflammation assessed as reduction in paw edema at 4 mg/kg, ip administered 30 mins prior to carrageenan challenge measured at 4 hrs post carrageenan challenge by plethysmometric method relative to control. More on the design: scale not given: the % may be the effect or the level left. The format is functional.

For another test, the target named is T2, Prostaglandin E synthase (Homo sapiens, UniProt O14684).
T2 sequence (O14684 whole entry): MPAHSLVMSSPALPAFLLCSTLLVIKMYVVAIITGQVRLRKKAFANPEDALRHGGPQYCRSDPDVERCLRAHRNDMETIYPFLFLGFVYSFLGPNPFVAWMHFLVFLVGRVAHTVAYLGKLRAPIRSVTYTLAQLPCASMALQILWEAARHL
The test is described as follows: Inhibition of mPGES-1 in microsomal membranes isolated from IL-1beta-stimulated human A549 cells preincubated for 15 mins followed by PGH2 addition measured after 1 mins by RP-HPLC analysis. The format is cell membranes.

The subject of test [4] is Mus musculus. The experiment in a line: Anti-inflammatory activity in carrageenan-induced ICR mouse model of inflammation assessed as reduction in paw edema at 20 mg/kg, ip administered 30 mins prior to carrageenan challenge measured at 2 to 6 hrs post carrageenan challenge by plethysmometric method relative to control. It is filed as functional. More on the design: scale not given: the % may be the effect or the level left.

The target of test [5] is T3, Prostaglandin E synthase (Homo sapiens) (UniProt O14684).
T3 sequence (whole entry): T2 sequence (O14684 whole entry)
The test is described as follows: Inhibition of mPGES-1 in microsomal membranes isolated from IL-1beta-stimulated human A549 cells assessed as residual activity preincubated for 15 mins followed by PGH2 addition measured after 1 mins by RP-HPLC analysis relative to control. The format is cell membranes.

Test [6] deals with Mus musculus. The experiment in a line: Anti-inflammatory activity in carrageenan-induced ICR mouse model of inflammation assessed as reduction in paw edema at 4 mg/kg, ip administered 30 mins prior to carrageenan challenge measured at 2 to 6 hrs post carrageenan challenge by plethysmometric method relative to control. It is filed as functional. More on the design: scale not given: the % may be the effect or the level left.

With `CCOC(=O)c1c(-c2ccc(Cl)c(Cl)c2)oc2c1cc(O)c1ccccc12`, the IC50 (as a rule, the point on the concentration scale where inhibition reaches its midpoint) in test [1] was determined as 1700 nM; in test [2], 1240 nM.

On to `CCOC(=O)c1c(-c2ccc(Cl)c(Cl)c2)[nH]c2c1cc(O)c1ccccc12`, for which the Activity with Mus musculus [3] is on record as 47.3%. For the same molecule, the figures for the IC50 (in test [1]; in test [2]; at Prostaglandin E synthase) were 130 nM, 130 nM and 480 nM, respectively.

For the molecule `CCOC(=O)c1c(-c2ccc(Cl)cc2)oc2c1cc(O)c1ccccc12`, the IC50 in test [1] amounted to 130 nM; in test [2] it was 3740 nM.

Consider `CCOC(=O)c1c(-c2cccc(Br)c2)oc2c1cc(O)c1ccccc12`, for which the IC50 came to 860 nM in test [1] and 1640 nM in test [2].

On to `CCOC(=O)c1c(-c2ccc(Br)cc2F)[nH]c2c1cc(O)c1ccccc12`, for which the Activity with Mus musculus [3] worked out at 69.35%. In addition, the IC50 in test [1] was 270 nM; in test [2], 860 nM; on Prostaglandin E synthase it was 3430 nM.

As to `CC(c1cc2ccccc2s1)N(O)C(N)=O` (centres undefined) [ZILEUTON], the Activity in the test on Mus musculus [4] is recorded as 38.2%.

With `CCOC(=O)c1c(-c2cc(Br)ccc2F)[nH]c2c1cc(O)c1ccccc12`, the Activity in the test on Mus musculus [3] was determined as 73.95%. Further, the IC50 is 110 nM in test [1], 230 nM in test [2] and 2130 nM on Prostaglandin E synthase.

Regarding `CCOC(=O)c1c(-c2ccccc2C)[nH]c2c1cc(O)c1ccccc12`, the figures for the IC50 (in test [1]; in test [2]; on Prostaglandin E synthase) were 110 nM, 420 nM and 12700 nM, respectively.

With `CCOC(=O)c1c(-c2ccccc2OC)[nH]c2c1cc(O)c1ccccc12`, the IC50 in test [1] stood at 190 nM; in test [2], 210 nM; on Prostaglandin E synthase, 8600 nM.

Regarding `CCOC(=O)c1c(-c2cc(C)cc(C)c2)[nH]c2c1cc(O)c1ccccc12`, the IC50 was 120 nM in test [1], 300 nM in test [2] and 7060 nM at Prostaglandin E synthase.

Take `CCOC(=O)c1c(-c2ccccc2OC)oc2c1cc(O)c1ccccc12`: the results for the IC50 in test [1] and in test [2] were 220 nM and 1360 nM, respectively.

Consider `CCOC(=O)c1c(-c2ccccc2Br)oc2c1cc(O)c1ccccc12`, for which the IC50 in test [1] worked out at 160 nM; in test [2], 790 nM.

For `CCOC(=O)c1c(-c2ccccc2F)[nH]c2c1cc(O)c1ccccc12`, the IC50 in test [1] is 100 nM; in test [2], 150 nM. Besides, the Activity in test [5] was found to be 50.6%.

With `CCOC(=O)c1c(Cc2c(F)cccc2F)[nH]c2c1cc(O)c1ccccc12`, the Activity in the test with Mus musculus [6] is 81%. Further, the IC50 in test [1] was determined as 169 nM; in test [2], 94 nM; at Prostaglandin E synthase it was 4200 nM.

With `CCOC(=O)c1c(Cc2ccc(Cl)c(Cl)c2)[nH]c2c1cc(O)c1ccccc12`, the Activity in the test with Mus musculus [6] stood at 73%. Moreover, the IC50 in test [1] came to 54 nM; in test [2], 45 nM; at Prostaglandin E synthase, 4200 nM.

For `CCOC(=O)c1c(-c2ccccc2Cl)oc2c1cc(O)c1ccccc12`, the results for the IC50 in test [1] and in test [2] were 370 nM and 1860 nM, respectively.

As to `CCOC(=O)c1c(-c2ccc(Cl)cc2)[nH]c2c1cc(O)c1ccccc12`, the IC50 against Prostaglandin E synthase was determined as 3400 nM.

As for `CCOC(=O)c1c(-c2cc(Br)ccc2F)oc2c1cc(O)c1ccccc12`, the IC50 in test [1] turned out to be 2030 nM; in test [2], 4490 nM.

`CCOC(=O)c1c(-c2ccc(Br)cc2F)oc2c1cc(O)c1ccccc12`: the IC50 is 1060 nM in test [1] and 2320 nM in test [2].

Consider `CCOC(=O)c1c(C)[nH]c2c1cc(O)c1ccccc12`, for which the IC50 came to 480 nM in test [1] and 420 nM in test [2].

As for `CCOC(=O)c1c(-c2cccc(Br)c2)[nH]c2c1cc(O)c1ccccc12`, the values for the concentration for half-maximal inhibition (IC50) (in test [1]; in test [2]; against Prostaglandin E synthase) were 130 nM, 210 nM and 1190 nM, respectively.

Take `CCOC(=O)c1c(-c2ccccc2F)oc2c1cc(O)c1ccccc12`: the IC50 in test [1] came out at 370 nM; in test [2], 670 nM.

Consider `CCOC(=O)c1c(Cc2c(C)cc(C)cc2C)[nH]c2c1cc(O)c1ccccc12`, for which the IC50 stood at 298 nM in test [1], 130 nM in test [2] and 58800 nM at Prostaglandin E synthase.

With `CCOC(=O)c1c(-c2ccccc2Cl)[nH]c2c1cc(O)c1ccccc12`, the IC50 worked out at 130 nM in test [1] and 240 nM in test [2].

Turning to `CCOC(=O)c1c(-c2cccc(C)c2)[nH]c2c1cc(O)c1ccccc12`, the IC50 in test [1] is 140 nM; in test [2] it was 120 nM; at Prostaglandin E synthase it was 2560 nM.

As for `CCOC(=O)c1c(-c2ccccc2Br)[nH]c2c1cc(O)c1ccccc12`, the IC50 in test [1] was 160 nM; in test [2], 200 nM; at Prostaglandin E synthase, 2540 nM.

With `CCOC(=O)c1c(-c2cccc(Cl)c2)oc2c1cc(O)c1ccccc12`, the 50% inhibitory concentration (IC50) in test [1] was found to be 460 nM; in test [2], 3920 nM.

Regarding `CCOC(=O)c1c(Cc2c(Cl)cccc2Cl)[nH]c2c1cc(O)c1ccccc12`, the results for the IC50 in test [1] and in test [2] were 782 nM and 1160 nM, respectively. For the same molecule, in test [5], the Activity worked out at 78.1%.

In turn, `CCOC(=O)c1c(Cc2ccccc2Cl)[nH]c2c1cc(O)c1ccccc12` returned an IC50 on Prostaglandin E synthase of 960 nM.
